EC50 data for 19 molecules are collected here from patent publication US8574563B2 (Bristol-Myers Squibb Company, priority 2006, dated 2013).

The structures appear in SMILES notation.

This test has as its system HCV 1b-377-neo replicon cells. Put plainly: HCV replicon assay, HCV 1b-377-neo replicon cells (1b FRET). It is filed as cell-based, Hepatitis C virus genotype 1b. To be noted: Hepatitis C virus, HCV 1b-377-neo replicon cells; HCV 1b genotype; read-out: EC50 range against HCV 1b (Table 2, Range). The essentials: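 Compounds were tested in genotype 1b subgenomic replicon cells carrying a neomycin marker, alongside a matched replicon line with an NS5A Y2065H substitution that confers resistance to a reference NS5A inhibitor.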
Background: A replicon is a self-replicating genome or part of one, used to study replication in cells.

Consider `COC(=O)N[C@@H](C(=O)N1CCC[C@H]1c1nc(-c2cc(-c3ccc(-c4cnc([C@@H]5CCCN5C(=O)[C@H](NC(=O)OC)c5ccccc5)[nH]4)cc3)ccc2OC)c[nH]1)c1ccccc1` [Example D34, dimethyl ((4-methoxy-3,4′-biphenyldiyl)bis(1H-imidazole-5,2-diyl(2S)-2,1-pyrrolidinediyl((1R)-2-oxo-1-phenyl-2,1-ethanediyl))) biscarbamate], for which the EC50 – broadly, the concentration at which the effect is half-maximal – was in the range of 0.001 to 0.999 nM.
The result for `CCN(CC)[C@@H](C(=O)N1CCC[C@H]1c1ncc(-c2ccc(-c3ccc(-c4cnc([C@@H]5CCCN5C(=O)[C@@H](NC(=O)OC)C(C)C)[nH]4)c(F)c3)cc2)[nH]1)c1ccccc1` [Example D35, methyl ((1S)-1-(((2S)-2-(5-(4′-(2-((2S)-1-((2R)-2-(diethylamino)-2 - phenylacetyl)-2-pyrrolidinyl)-1H-imidazol-5-yl)-3-fluoro-4-biphenylyl)-1H-imidazol-2-yl)-1-pyrrolidinyl)carbonyl)-2-methylpropyl) carbamate] reads 0.001 to 0.999 nM; that for `CCN(CC)[C@@H](C(=O)N1CCC[C@H]1c1ncc(-c2ccc(-c3ccc(-c4cnc([C@@H]5CCCN5C(=O)[C@H](C)NC(=O)OC)[nH]4)c(F)c3)cc2)[nH]1)c1ccccc1` [Example D36, methyl ((1S)-2-((2S)-2-(5-(4′-(2-((2S)-1-((2R)-2-(diethylamino)-2-phenylacetyl)-2-pyrrolidinyl)-1H-imidazol-5-yl)-3-fluoro-4-biphenylyl)-1H-imidazol-2-yl)-1-pyrrolidinyl)-1-methyl-2-oxoethyl)carbamate], 0.001 to 0.999 nM; that for `CCN(CC)[C@@H](C(=O)N1CCC[C@H]1c1ncc(-c2ccc(-c3ccc(-c4cnc([C@@H]5CCCN5C(=O)[C@H](NC(=O)OC)c5ccccc5)[nH]4)c(F)c3)cc2)[nH]1)c1ccccc1` [Example D37, methyl ((1R)-2-((2S)-2-(5-(4′-(2-((2S)-1-((2R)-2-(diethylamino)-2-phenylacelyl)-2-pyrrolidinyl)-1H-imidazol-5-yl)-3-fluoro-4-biphenylyl)-1H-imidazol-2-yl)-1-pyrrolidinyl)-2-oxo-1-phenylethyl)carbamate], 0.001 to 0.999 nM.
To `COC(=O)N[C@@H](C)C(=O)N1CCC[C@H]1c1ncc(-c2ccc(-c3ccc(-c4cnc([C@@H]5CCCN5C(=O)[C@H](NC(=O)OC)c5ccccc5)[nH]4)cc3)cc2F)[nH]1` [Example D38, methyl ((1R)-2-((2S)-2-(5-(3′-fluoro-4′-(2-((2S)-1-(N-(methoxycarbonyl)-L-alanyl)-2-pyrrolidinyl)-1H-imidazol-5-yl)-4-biphenylyl)-1H-imidazol-2-yl)-1-pyrrolidinyl)-2-oxo-1-phenylethyl)carbamate] belongs 0.001 to 0.999 nM; to `CCN(CC)[C@@H](C(=O)N1CCC[C@H]1c1ncc(-c2ccc(-c3ccc(-c4cnc([C@@H]5CCCN5C(=O)[C@H](NC(=O)OC)c5ccccc5)[nH]4)cc3)cc2F)[nH]1)c1ccccc1` [Example D39, methyl ((1R)-2-((2S)-2-(5-(4′-(2-((2S)-1-((2R)-2-(diethylamino)-2-phenylacetyl)-2-pyrrolidinyl)-1H-imidazol-5-yl)-3′-fluoro-4-biphenylyl)-1H-imidazol-2-yl)-1-pyrrolidinyl)-2-oxo-1-phenylethyl)carbamate], 0.001 to 0.999 nM.
The result for `COC(=O)N[C@H](C(=O)N1CCC[C@H]1c1ncc(-c2ccc(-c3ccc(-c4cnc([C@@H]5CCCN5C(=O)[C@@H](NC(=O)OC)C(C)C)[nH]4)c(F)c3)cc2)[nH]1)C(C)C` [Example D40, methyl ((1S)-1-(((2S)-2-(5-(3′-fluoro-4′-(2-((2S)-1-((2S)-2-((methoxycarbonyl)amino)-3-methylbutanoyl)-2-pyrrolidinyl)-1H-imidazol-5-yl)-4-biphenylyl)-1H-imidazol-2-yl)-1-pyrrolidinyl)carbony)-2-methylpropyl) carbamate] reads 0.001 to 0.999 nM; that for `COC(=O)N[C@@H](C)C(=O)N1CCC[C@H]1c1ncc(-c2ccc(-c3ccc(-c4cnc([C@@H]5CCCN5C(=O)[C@@H](NC(=O)OC)C(C)C)[nH]4)cc3)cc2F)[nH]1` [Example D41, methyl ((1S)-1-(((2S)-2-(5-(3′-fluoro-4′-(2-((2S)-1-(N-(methoxycarbonyl)-L-alanyl)-2-pyrrolidinyl)-1H-imidazol-5-yl)-4-biphenylyl)-1H-imidazol-2-yl)-1-pyrrolidinyl)carbonyl)-2-methylpropyl) carbamate], 0.001 to 0.999 nM.
As for `CCN(CC)[C@H](C)C(=O)N1CCC[C@H]1c1ncc(-c2ccc(-c3ccc(-c4cnc([C@@H]5CCCN5C(=O)[C@@H](NC(=O)OC)C(C)C)[nH]4)cc3)cc2F)[nH]1` [Example D43, methyl ((1S)-1-(((2S)-2-(5-(4′-(2-((2S)-1-(N,N-diethyl-D-alanyl)-2-pyrrolidinyl)-1H-imidazol-5-yl)-3′-fluoro-4-biphenylyl)-1H-imidazol-2-yl)-1-pyrrolidinyl)carbonyl)-2-methylpropyl) carbamate], the EC50 was in the range of 0.001 to 0.999 nM.
The result for `CCN(CC)[C@@H](C(=O)N1CCC[C@H]1c1ncc(-c2ccc(-c3ccc(-c4cnc([C@@H]5CCCN5C(=O)[C@@H](NC(=O)OC)C(C)C)[nH]4)cc3)cc2F)[nH]1)c1ccccc1` [Example D44, methyl ((1S)-1-(((2S)-2-(5-(4′-(2-((2S)-1-((2R)-2-(diethylamino)-2-phenylacetyl)-2-pyrrolidinyl)-1H-imidazol-5-yl)-3′-fluoro-4-biphenylyl)-1H-imidazol-2-yl)-1-pyrrolidinyl)carbonyl)-2-methylpropyl) carbamate] reads 0.001 to 0.999 nM; that for `COC(=O)N[C@@H](C)C(=O)N1CCC[C@H]1c1ncc(-c2ccc(-c3ccc(-c4cnc([C@@H]5CCCN5C(=O)[C@H](C)NC(=O)OC)[nH]4)c(F)c3)cc2)[nH]1` [Example D45, methyl ((1S)-2-((2S)-2-(5-(3′-fluoro-4′-(2-((2S)-1-(N-(methoxycarbonyl)-L-alanyl)-2-pyrrolidinyl)-1H-imidazol-5-yl)-4-biphenylyl)-1H-imidazol-2-yl)-1-pyrrolidinyl)-1-methyl-2-oxoethyl)carbamate], 0.001 to 0.999 nM; that for `COC(=O)N[C@@H](C(=O)N1CCC[C@H]1c1ncc(-c2ccc(-c3ccc(-c4cnc([C@@H]5CCCN5C(=O)[C@H](NC(=O)OC)c5ccccc5)[nH]4)c(F)c3)cc2)[nH]1)c1ccccc1` [Example D46, dimethyl ((3-fluoro-4,4′-biphenyldiyl)bis(1H-imidazole-5,2-diyl(2S)-2,1-pyrrolidinediyl((1R)-2-oxo-1-phenyl-2,1-ethanediyl))) biscarbamate], 0.001 to 0.999 nM.
To `CCN(CC)[C@@H](C(=O)N1CCC[C@H]1c1ncc(-c2ccc(-c3ccc(-c4cnc([C@@H]5CCCN5C(=O)[C@@H](c5ccccc5)N(CC)CC)[nH]4)c(F)c3)cc2)[nH]1)c1ccccc1` [Example D47, (1R,1′R)-2,2′-((3-fluoro-4,4′-biphenyldiyl)bis(1H-imidazole-5,2-diyl(2S)-2,1-pyrrolidinediyl))bis (N,N-diethyl-2-oxo-1-phenylethanamine)] belongs 0.001 to 0.999 nM; to `CCN(CC)[C@H](C)C(=O)N1CCC[C@H]1c1ncc(-c2ccc(-c3ccc(-c4cnc([C@@H]5CCCN5C(=O)[C@H](NC(=O)OC)c5ccccc5)[nH]4)cc3)cc2F)[nH]1` [Example D48, methyl ((1R)-2-((2S)-2-(5-(4′-(2-((2S)-1-(N,N-diethyl-D-alanyl)-2-pyrrolidinyl)-1H-imidazol-5-yl)-3′-fluoro-4-biphenylyl)-1H-imidazol-2-yl)-1-pyrrolidinyl)-2-oxo-1-phenylethyl)carbamate], 0.001 to 0.999 nM.
To `CCN(CC)[C@@H](C(=O)N1CCC[C@H]1c1ncc(-c2ccc(-c3ccc(-c4cnc([C@@H]5CCCN5C(=O)[C@@H](NC(=O)OC)C5CC5)[nH]4)c(F)c3)cc2)[nH]1)c1ccccc1` [Example D49, methyl ((1S)-1-cyclopropyl-2-((2S)-2-(5-(4′-(2-((2S)-1-((2R)-2-(diethylamino)-2-phenylacetyl)-2-pyrrolidinyl)-1H-imidazol-5-yl)-3-fluoro-4-biphenylyl)-1H-imidazol-2-yl)-1-pyrrolidinyl)-2-oxoethyl)carbamate] belongs 0.001 to 0.999 nM; to `COC(=O)N[C@H](C(=O)N1CCC[C@H]1c1ncc(-c2ccc(-c3ccc(-c4cnc([C@@H]5CCCN5C(=O)[C@@H](NC(=O)OC)C5CC5)[nH]4)c(F)c3)cc2)[nH]1)C(C)C` [Example D50, methyl ((1S)-1-cyclopropyl-2-((2S)-2-(5-(3-fluoro-4′-(2-((2S)-1-(N-(methoxycarbonyl)-L-valyl)-2-pyrrolidinyl)-1H-imidazol-5-yl)-4-biphenylyl)-1H-imidazol-2-yl)-1-pyrrolidinyl)-2-oxoethyl)carbamate], 0.001 to 0.999 nM; to `COC(=O)N[C@@H](C)C(=O)N1CCC[C@H]1c1ncc(-c2ccc(-c3cc(F)c(-c4cnc([C@@H]5CCCN5C(=O)[C@H](C)NC(=O)OC)[nH]4)cc3F)cc2)[nH]1` [Example D52, methyl ((1S)-2-((2S)-2-(5-(2′5′-difluoro-4′-(2-((2S)-1-(N-(methoxycarbonyl)-L-alanyl)-2-pyrrolidinyl)-1H-imidazol-5-yl)-4-biphenylyl)-1H-imidazol-2-yl)-1-pyrrolidinyl)-1-methyl-2-oxoethyl)carbamate], 0.001 to 0.999 nM.
Turning to `COC(=O)N[C@@H](C(=O)N1CCC[C@H]1c1ncc(-c2ccc(-c3cc(F)c(-c4cnc([C@@H]5CCCN5C(=O)[C@H](NC(=O)OC)c5ccccc5)[nH]4)cc3F)cc2)[nH]1)c1ccccc1` [Example D53, dimethyl ((2,5-difluoro-4,4′-biphenyldiyl)bis(1H-imidazole-5,2-diyl(2S)-2,1-pyrrolidinediyl((1R)-2-oxo-1-phenyl-2,1-ethanediyl))) biscarbamate], the EC50 was 0.001 to 0.999 nM.
For the molecule `CCN(CC)[C@@H](C(=O)N1CCC[C@H]1c1ncc(-c2ccc(-c3cc(F)c(-c4cnc([C@@H]5CCCN5C(=O)[C@@H](c5ccccc5)N(CC)CC)[nH]4)cc3F)cc2)[nH]1)c1ccccc1` [Example D54, (1R1′R)-2,2′-((2,5-difluoro-4,4′-biphenyldiyl)bis(1H-imidazole-5,2-diyl(2S)-2,1-pyrrolidinediyl))bis (N,N-diethyl-2-oxo-1-phenylethanamine)], the EC50 fell in the range of 0.001 to 0.999 nM.
